From US10568344B2, “Methods of improving animal performance” (Novozymes A/S, priority 2015, dated 2020)
Read-outs that look alike come from different tables or passages of the source.

Experiments:
[1] = system: Clostridium perfringens DSM756; format: cell-based; conditions: for Diameter of clearing zone: lysozymes 100 μg/ml, bacitracin 50 μg/ml
[2] = system: Exiguobacterium undae (DSM14481); assay: Lysozyme activity turbidity assay (optical density drop); format: biochemical; conditions: pH 6
[3] = system: Micrococcus lysodeikticus ATTC No. 4698; assay: as above; conditions: pH 6

Row | Substance | Diameter of clearing zone ([1]; Experiment 1, 1/2 MHB pH 6) [mm] | Diameter of clearing zone ([1]; Experiment 1, 1/10 MHB pH 7) [mm] | Diameter of clearing zone ([1]; Experiment 2, 1/2 MHB pH 6) [mm] | Diameter of clearing zone ([1]; Experiment 2, 1/10 MHB pH 7) [mm] | Lysozyme activity as measured by Optical Density Drop [2] | Inhibition zone ([1]; 1/10 MHB, pH7, both experiments) | Clearing zone diameter ([1]; ½ MHB, pH 6, both experiments) | Lysozyme activity as measured by Optical Density Drop [3]
1 | Bacitracin zinc salt [reference compound] | 13 | 23 | 11 | 20 | – | – | – | –
2 | SEQ ID NO: 5: mature amino acid sequence of a wild type GH22 lysozyme from Gallus gallus (hen egg white lysozyme), Sigma 62971 [reference compound] | 0 | 11 | 0 | 9 | + (pH 6) | 9-11 mm | no zone of inhibition | +++ (pH 6)
